Results published in ChEMBL document CHEMBL1201862, “PubChem BioAssay data set” (2004).
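Method: 48-hour compound exposure of cells in 96-well plates, five concentrations, linear interpolation of endpoints. GI50 is the concentration that inhibits growth by half.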 Calls of active or inactive are those of the source. Cut-off read from the data, not from the text of the source: active = GI50 up to about 1.1 µM and inactive = higher.

How the values were obtained:
Experiment in all cases: NCI-60 cell line screen, 48 h
MDA-N = system: MDA-N
DMS-114 = system: DMS-114
DMS-273 = system: DMS-273
HOP-18 = system: HOP-18
LXFL 529 = system: LXFL 529
M19-MEL = system: M19-MEL
SNB-78 = system: SNB-78
XF498 = system: XF498
RXF 631 = system: RXF 631

Row | Compound | GI50 (MDA-N) | GI50 (DMS-114) | GI50 (LXFL 529) | GI50 (SNB-78) | further results
1 | Clc1ccc(Cc2nc3ccccc3nc2-c2cccc(Br)c2)cc1 | 1.97 µM (inactive) | – | – | – | –
2 | O=C(O)c1c(-c2nccc3ccccc23)[nH]c(-c2ccccc2)c1S(=O)(=O)O | > 100 µM (inactive) | – | – | – | –
3 | Cc1c(Cl)cccc1NC(=O)C(=O)c1c(O)c2ccc(O)cc2oc1=O | – | > 100 µM (inactive) | > 100 µM (inactive) | > 100 µM (inactive) | GI50 (DMS-273): > 100 µM (inactive); GI50 (HOP-18): > 100 µM (inactive); GI50 (M19-MEL): > 100 µM (inactive); GI50 (XF498): > 100 µM (inactive)
4 | Oc1nc(-c2ccccc2)cc(-c2ccccc2O)n1 | – | 58.5 µM (inactive) | 50.4 µM (inactive) | > 100 µM (inactive) | GI50 (DMS-273): > 100 µM (inactive); GI50 (HOP-18): > 100 µM (inactive); GI50 (M19-MEL): > 100 µM (inactive); GI50 (XF498): 65 µM (inactive)
5 | O=C(/C=C\c1ccc(-c2ccccc2)cc1)c1cccs1 | 7.89 µM (inactive) | – | – | – | –
6 | CC(CCC[C@H](C)CO)[C@H]1[C@@H](O)C(O)C2[C@@H]3C[C@@H](O)C4(O)C[C@@H](O)CC[C@]4(C)C3CC[C@@]21C (stereo not given in full) | – | 84.7 µM (inactive) | > 100 µM (inactive) | > 100 µM (inactive) | GI50 (DMS-273): > 100 µM (inactive); GI50 (HOP-18): > 100 µM (inactive); GI50 (M19-MEL): > 100 µM (inactive); GI50 (XF498): > 100 µM (inactive)
7 | O=C(Nc1ccn(C2CCC(CO)O2)c(=O)n1)c1ccccc1 (stereo not given) | > 100 µM (inactive) | – | – | – | –
8 | Nc1c(Cl)ncnc1NCC1(CO)CCC1 | > 100 µM (inactive) | – | – | – | –
9 | CC(C)C[C@H](NC(=O)[C@H](Cc1cccc2ccccc12)NC(=O)N1CCOCC1)B(O)O | < 0.01 µM (active) | – | – | – | –
10 | C(CCC[Te][Te]CCCCCCOC1CCCCO1)CCOC1CCCCO1 (stereo not given) | – | 3.89 µM (inactive) | 9.02 µM (inactive) | 17.1 µM (inactive) | GI50 (HOP-18): 19.3 µM (inactive); GI50 (XF498): 10.2 µM (inactive)
11 | CCC1(O)C(=O)OCc2c1cc1n(c2=O)Cc2cc3ccccc3nc2-1 (stereo not given) | 0.0817 µM (active) | – | – | – | –
12 | CCCCCCN(CCCCCC)C(=S)N/N=C(\C)c1ccccn1 | 1.32 µM (inactive) | 0.571 µM (active) | 0.208 µM (active) | 0.711 µM (active) | GI50 (DMS-273): 1.63 µM (inactive); GI50 (RXF 631): 1.02 µM (active)
13 | CC(C)(C)NC(=S)N/N=C/c1ccccn1 | 1.58 µM (inactive) | – | – | – | –
14 | O=C(CCCNC(=O)OCc1ccccc1)OCc1ccc2c(c1)C(=O)c1ccccc1C2=O | – | > 97.1 µM (inactive) | > 100 µM (inactive) | 38.4 µM (inactive) | GI50 (RXF 631): > 78.7 µM (inactive)
15 | Clc1ccc2c(Cl)ncnc2c1I | – | 54.3 µM (inactive) | 34 µM (inactive) | – | GI50 (DMS-273): > 100 µM (inactive); GI50 (M19-MEL): > 100 µM (inactive); GI50 (XF498): 91.6 µM (inactive)
16 | O=C1CCC(=O)N1n1c(Cc2ccc(Cl)cc2)n[nH]c1=O | > 100 µM (inactive) | – | – | – | –
17 | CCOC(=O)C1=C(C)NC(C)=C(C(=O)OCC)C1c1ccc(Cl)cc1 | 13.2 µM (inactive) | – | – | – | –
18 | O=[N+]([O-])c1cc(Cl)cc2c1nc(NCCO)c1ccccc12 | 4.62 µM (inactive) | – | – | – | –
19 | COC(=O)C(C(=O)C(=O)Nc1ccccc1C(C)=O)c1nc2ccc(Cl)cc2nc1O (stereo not given) | – | > 100 µM (inactive) | > 100 µM (inactive) | > 100 µM (inactive) | GI50 (HOP-18): 53.5 µM (inactive); GI50 (M19-MEL): > 100 µM (inactive); GI50 (RXF 631): > 100 µM (inactive)
20 | O=c1[nH]c2ccccc2cc1C(Cl)=C(Cl)Cl | – | > 100 µM (inactive) | > 100 µM (inactive) | > 100 µM (inactive) | GI50 (DMS-273): > 100 µM (inactive); GI50 (HOP-18): > 100 µM (inactive); GI50 (M19-MEL): > 100 µM (inactive); GI50 (XF498): > 100 µM (inactive)
21 | c1csc(-c2ccc(-c3cccs3)c3nsnc23)c1 | 17.9 µM (inactive) | – | – | – | –
22 | O=[N+]([O-])/C(C(Cl)=C(Cl)Cl)=C(/Nc1ccccc1)Sc1ccccc1 | 24.9 µM (inactive) | – | – | – | –
23 | O=C1c2cccc3cccc(c23)C(=O)N1CCCNCCCNCCCCNCCCNCCCN1C(=O)c2cccc3cccc(c23)C1=O | 2.36 µM (inactive) | – | – | – | –
24 | CC(C(=O)NCNC(=O)c1ccccc1)C(=O)NCc1ccccc1 (stereo not given) | > 100 µM (inactive) | – | – | – | –
25 | Nc1ccc2nc3c(nc2c1)C(=O)c1ccccc1-3 | > 100 µM (inactive) | – | – | – | –
26 | O=C1c2cc3ncsc3cc2C(=O)c2c(O)ccc(O)c21 | > 100 µM (inactive) | – | – | – | –
27 | Cc1nc2ccccc2c(=O)n1/N=C(\N=N\c1cc(Cl)ccc1Cl)c1ccc(N(C)C)cc1 | – | 22.8 µM (inactive) | 29.9 µM (inactive) | – | GI50 (DMS-273): 38.5 µM (inactive); GI50 (HOP-18): 75.9 µM (inactive); GI50 (M19-MEL): > 100 µM (inactive); GI50 (XF498): 2.79 µM (inactive)
28 | CCCCCCCCCCCCCCCC/C(C(=O)OC)=C(/O)C(=O)OCC | – | > 100 µM (inactive) | > 100 µM (inactive) | > 100 µM (inactive) | GI50 (DMS-273): > 100 µM (inactive); GI50 (HOP-18): > 100 µM (inactive); GI50 (M19-MEL): > 100 µM (inactive)
29 | CCOC(=O)C(SCCO)C(C(=O)OCC)n1cnc2c(=O)[nH]c(NC(C)=O)nc21 (stereo not given) | > 100 µM (inactive) | – | – | – | –
30 | Cc1ccc(S(=O)(=O)Oc2nc3ccccc3nc2N(S(=O)(=O)c2ccc(C)cc2)S(=O)(=O)c2ccc(C)cc2)cc1 | 45 µM (inactive) | – | – | – | –
